Test results from patent publication US11059766B2, “Ethynyl derivatives” (Hoffmann-La Roche Inc., priority 2015, dated 2021).

How the values were obtained:
human mGlu5a receptor [1] = molecular target: T1, human mGlu5a receptor (Homo sapiens (Human), UniProt P41594); assay: Intracellular Ca2+ mobilization assay (mGlu5 PAM assay); type: cell-based; details: for mGlu5 PAM EC50: HEK-293 cells, glutamate at EC20; for Activity profile: PAM or NAM; for EC50 (nM) mGlu5 PAM assay: comparison table; for Efficacy: maximal response in % of maximal stimulatory effect of saturating L-glutamate
T1 sequence (P41594 other isoform, or with tags, fused parts or gaps): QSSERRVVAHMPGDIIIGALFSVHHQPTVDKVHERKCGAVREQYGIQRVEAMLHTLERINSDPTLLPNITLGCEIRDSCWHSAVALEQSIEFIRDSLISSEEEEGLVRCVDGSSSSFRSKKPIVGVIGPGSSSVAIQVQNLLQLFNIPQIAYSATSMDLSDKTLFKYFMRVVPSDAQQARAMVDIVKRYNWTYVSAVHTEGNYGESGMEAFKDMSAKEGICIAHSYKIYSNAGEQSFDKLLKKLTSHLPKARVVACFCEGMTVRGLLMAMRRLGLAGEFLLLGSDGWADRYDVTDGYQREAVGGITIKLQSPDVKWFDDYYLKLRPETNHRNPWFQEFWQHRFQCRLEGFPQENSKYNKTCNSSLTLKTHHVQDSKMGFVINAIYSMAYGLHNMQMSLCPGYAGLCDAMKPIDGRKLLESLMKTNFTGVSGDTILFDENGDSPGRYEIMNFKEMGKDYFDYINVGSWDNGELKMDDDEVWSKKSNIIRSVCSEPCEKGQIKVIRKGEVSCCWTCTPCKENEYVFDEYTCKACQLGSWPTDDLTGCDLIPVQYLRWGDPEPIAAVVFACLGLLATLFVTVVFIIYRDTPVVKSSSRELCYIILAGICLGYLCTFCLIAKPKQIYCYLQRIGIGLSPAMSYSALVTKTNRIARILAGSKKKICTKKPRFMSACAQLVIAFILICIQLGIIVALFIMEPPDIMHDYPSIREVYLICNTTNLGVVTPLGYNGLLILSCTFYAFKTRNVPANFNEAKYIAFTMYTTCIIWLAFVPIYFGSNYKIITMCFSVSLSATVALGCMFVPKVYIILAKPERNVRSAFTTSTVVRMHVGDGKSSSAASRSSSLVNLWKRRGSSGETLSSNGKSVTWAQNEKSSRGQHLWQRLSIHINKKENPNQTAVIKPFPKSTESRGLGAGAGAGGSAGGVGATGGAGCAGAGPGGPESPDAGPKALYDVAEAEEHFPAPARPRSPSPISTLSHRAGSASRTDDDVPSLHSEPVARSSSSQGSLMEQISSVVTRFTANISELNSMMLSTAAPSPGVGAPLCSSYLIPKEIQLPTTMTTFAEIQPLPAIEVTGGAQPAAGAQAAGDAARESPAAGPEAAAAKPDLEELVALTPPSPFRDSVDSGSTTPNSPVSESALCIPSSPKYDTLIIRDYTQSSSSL
Experimental: A monoclonal HEK-293 cell line stably transfected with a cDNA encoding for the human mGlu5a receptor was generated; for the work with mGlu5 Positive Allosteric Modulators (PAMs), a cell line with low receptor expression levels and low constitutive receptor activity was selected to allow the differentiation of agonistic versus PAM activity. Cells were cultured according to standard protocols (Freshney, 2000) in Dulbecco's Modified Eagle Medium with high glucose supplemented with 1 mM glutamine, 10% (vol/vol) heat-inactivated bovine calf serum, Penicillin/Streptomycin, 50 μg/ml hygromycin and 15 μg/ml blasticidin (all cell culture reagents and antibiotics from Invitrogen, Basel, Switzerland).
About 24 hrs before an experiment, 5×10^4 cells/well were seeded in poly-D-lysine coated, black/clear-bottomed 96-well plates. The cells were loaded with 2.5 μM Fluo-4AM in loading buffer (1×HBSS, 20 mM HEPES) for 1 hr at 37° C. and washed five times with loading buffer. The cells were transferred into a Functional Drug Screening System 7000 (Hamamatsu, Paris, France), and 11 half logarithmic serial dilutions of test compound at 37° C. were added and the cells were incubated for 10-30 min with on-line recording of fluorescence. Following this pre-incubation step, the agonist L-glutamate was added to the cells at a concentration corresponding to EC20 (typically around 80 μM) with on-line recording of fluorescence; in order to account for day-to-day variations in the responsiveness of cells, the EC20 of glutamate was determined immediately ahead of each experiment by recording of a full dose-response curve of glutamate.
Responses were measured as peak increase in fluorescence minus basal (i.e. fluorescence without addition of L-glutamate), normalized to the maximal stimulatory effect obtained with saturating concentrations of L-glutamate. Graphs were plotted with the % maximal stimulatory using XLfit, a curve fitting program that iteratively plots the data using Levenburg Marquardt algorithm. The single site competition analysis equation used was y=A+((B−A)/(1+((x/C)D))), where y is the % maximal stimulatory effect, A is the minimum y, B is the maximum y, C is the EC50, x is the log 10 of the concentration of the competing compound and D is the slope of the curve (the Hill Coefficient). From these curves the EC50 (concentration at which half maximal stimulation was achieved), the Hill coefficient as well as the maximal response in % of the maximal stimulatory effect obtained with saturating concentrations of L-glutamate were calculated.
A depression of the signal observed after addition of the EC20 concentration of L-glutamate was indicative of an inhibitory activity of the test compound.

[2] = rat Vogel conflict drinking test; type: in vivo
human mGlu5a receptor [3] = molecular target: T1, human mGlu5a receptor; assay: MPEP binding assay ([3H]MPEP displacement); details: for EC50: [3H]MPEP 2 nM, EBNA cell membranes, read-out: mGlu5-MPEP binding EC50; for Ki: comparison table
Experimental: For binding experiments, cDNA encoding human mGlu5a receptor was transiently transfected into EBNA cells using a procedure described by Schlaeger and Christensen [Cytotechnology 15:1-13 (1998)]. Cell membrane homogenates were stored at −80° C. until the day of assay where upon they were thawed and resuspended and polytronised in 15 mM Tris-HCl, 120 mM NaCl, 100 mM KCl, 25 mM CaCl2, 25 mM MgCl2 binding buffer at pH 7.4 to a final assay concentration of 20 μg protein/well.
Saturation isotherms were determined by addition of twelve [^3H]MPEP concentrations (0.04-100 nM) to these membranes (in a total volume of 200 μl) for 1 h at 4° C. Competition experiments were performed with a fixed concentration of [^3H]MPEP (2 nM) and IC50 values of test compounds evaluated using 11 concentrations (0.3-10,000 nM). Incubations were performed for 1 h at 4° C.
At the end of the incubation, membranes were filtered onto unifilter (96-well white microplate with bonded GF/C filter preincubated 1 h in 0.1% PEI in wash buffer, Packard BioScience, Meriden, Conn.) with a Filtermate 96 harvester (Packard BioScience) and washed 3 times with cold 50 mM Tris-HCl, pH 7.4 buffer. Nonspecific binding was measured in the presence of 10 μM MPEP. The radioactivity on the filter was counted (3 min) on a Packard Top-count microplate scintillation counter with quenching correction after addition of 45 μl of microscint 40 (Canberra Packard S. A., Zürich, Switzerland) and shaking for 20 min.

For `CN1C(=O)N(c2ccc(C#Cc3ccccc3)cn2)[C@@H]2CC[C@@H]21` [Example 1, (−)-(1 S,5R)-2-methyl-4-(5-(phenylethynyl)pyridin-2-yl)-2,4-diazabicyclo[3.2.0]heptan-3-one], the “mGlu5 PAM EC50” value (human mGlu5a receptor [1]) was “inactive”, the Activity profile (human mGlu5a receptor [1]) was “NAM” and the “EC50 (nM) mGlu5 PAM assay” value (human mGlu5a receptor [1]) was “inactive”. The “minimal effective dose (anxiolytic activity)” value [2] was 0.1 mg/kg, the EC50 (human mGlu5a receptor [3]) was 9 nM and the Ki (human mGlu5a receptor [3]) was 9 nM.

For `CN1C(=O)N(c2ccc(C#Cc3cccc(F)c3)cn2)[C@@H]2CC[C@@H]21` [Example 2, (−)-(1R,5S)-2-[5-(3-Fluoro-phenylethynyl)-pyridin-2-yl]-4-methyl-2,4-diazabicyclo[3.2.0]heptan-3-one], the “mGlu5 PAM EC50” value (human mGlu5a receptor [1]) was “inactive”, the Activity profile (human mGlu5a receptor [1]) was “NAM” and the “EC50 (nM) mGlu5 PAM assay” value (human mGlu5a receptor [1]) was “inactive”. It also gave an EC50 (human mGlu5a receptor [3]) of 5 nM and a Ki (human mGlu5a receptor [3]) of 5 nM.

With `CN1C(=O)N(c2ccc(C#Cc3ccc(F)cc3)cn2)[C@@H]2CC[C@@H]21` [Example 3, (−)-(1R,5S)-2-[5-(4-Fluoro-phenylethynyl)-pyridin-2-yl]-4-methyl-2,4-diazabicyclo[3.2.0]heptan-3-one] the “mGlu5 PAM EC50” value (human mGlu5a receptor [1]) was “inactive”, the Activity profile (human mGlu5a receptor [1]) was “NAM” and the “EC50 (nM) mGlu5 PAM assay” value (human mGlu5a receptor [1]) was “inactive”. For the same compound, the EC50 (human mGlu5a receptor [3]) was 4 nM and the Ki (human mGlu5a receptor [3]) was 4 nM.

With `CN1C(=O)N(c2ccc(C#Cc3cc(F)ccc3F)cn2)[C@@H]2CC[C@@H]21` [Example 4, (−)-(1R,5S)-2-[5-(2,5-Difluoro-phenylethynyl)-pyridin-2-yl]-4-methyl-2,4-diazabicyclo[3.2.0]heptan-3-one] the “mGlu5 PAM EC50” value (human mGlu5a receptor [1]) was “inactive”, the Activity profile (human mGlu5a receptor [1]) was “NAM” and the “EC50 (nM) mGlu5 PAM assay” value (human mGlu5a receptor [1]) was “inactive”. For the same compound, the EC50 (human mGlu5a receptor [3]) was 3 nM and the Ki (human mGlu5a receptor [3]) was 3 nM.

With `CN1C(=O)N(c2ccc(C#Cc3ccccc3)cn2)[C@@H]2CCC[C@@H]21` [Ref. 1; Ex. 106, reference compound] the Activity profile (human mGlu5a receptor [1]) was “PAM”, the Efficacy (human mGlu5a receptor [1]) was 42% and the Ki (human mGlu5a receptor [3]) was 8 nM.

In the case of `CN1C(=O)N(c2ccc(C#Cc3cccc(F)c3)cn2)[C@@H]2CCC[C@@H]21` [Ref. 1; Ex. 109, reference compound], the Activity profile (human mGlu5a receptor [1]) is reported as “PAM”, the Efficacy (human mGlu5a receptor [1]) is reported as 37% and the EC50 (human mGlu5a receptor [3]) is reported as 12 nM. The Ki (human mGlu5a receptor [3]) was 37 nM.
